Measurements from patent publication US6686370B2, “Triazospiro compounds having nociceptin receptor affinity” (Euro-Celtique S.A., priority 1999, dated 2004).

O=C1NCN(c2ccccc2)C12CCN(C1CCc3ccccc3C1)CC2 (stereo not shown) [8-[1,2,3,4tetrahydronaphthyl]-1-phenyl-1,3,8-triazospiro[4.5]decan-4-one]
melting point: 192 to 193 °C
